Results reported in patent US20230203059A1, “MACROCYCLIC JAK INHIBITOR AND USES THEREOF” (Biopolar Hongye (Guangdong) Pharmaceutical Co. Ltd., priority 2020, published 2023).

How the values were obtained:
Format in all cases: biochemical
JAK1 = JAK1 (Homo sapiens, UniProt P23458); assay: JAK kinase activity, homogeneous time-resolved fluorescence (JAK1 reaction system); conditions: ATP 2 μM, JAK1 protein 0.2 ng/μL; read-out: JAK 1 activity
In short: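 HTRF assay: JAK1 (0.2 ng/μL) with 2 μM ATP and substrate in 50 mM Hepes pH 7.0, 5 mM MgCl2, 1 mM DTT, 1 h. Phospho-substrate antibody/XL-615 detection with EDTA; 665/615 nm ratio, excitation 320 nm. IC50 from Hill-type fit against no-enzyme and no-compound controls.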

JAK2 = JAK2 (Homo sapiens, UniProt O60674); assay: JAK kinase activity, homogeneous time-resolved fluorescence (JAK2 reaction system); conditions: ATP 2 μM, JAK2 protein 0.01 ng/μL
Chain of JAK2 (O60674 whole entry): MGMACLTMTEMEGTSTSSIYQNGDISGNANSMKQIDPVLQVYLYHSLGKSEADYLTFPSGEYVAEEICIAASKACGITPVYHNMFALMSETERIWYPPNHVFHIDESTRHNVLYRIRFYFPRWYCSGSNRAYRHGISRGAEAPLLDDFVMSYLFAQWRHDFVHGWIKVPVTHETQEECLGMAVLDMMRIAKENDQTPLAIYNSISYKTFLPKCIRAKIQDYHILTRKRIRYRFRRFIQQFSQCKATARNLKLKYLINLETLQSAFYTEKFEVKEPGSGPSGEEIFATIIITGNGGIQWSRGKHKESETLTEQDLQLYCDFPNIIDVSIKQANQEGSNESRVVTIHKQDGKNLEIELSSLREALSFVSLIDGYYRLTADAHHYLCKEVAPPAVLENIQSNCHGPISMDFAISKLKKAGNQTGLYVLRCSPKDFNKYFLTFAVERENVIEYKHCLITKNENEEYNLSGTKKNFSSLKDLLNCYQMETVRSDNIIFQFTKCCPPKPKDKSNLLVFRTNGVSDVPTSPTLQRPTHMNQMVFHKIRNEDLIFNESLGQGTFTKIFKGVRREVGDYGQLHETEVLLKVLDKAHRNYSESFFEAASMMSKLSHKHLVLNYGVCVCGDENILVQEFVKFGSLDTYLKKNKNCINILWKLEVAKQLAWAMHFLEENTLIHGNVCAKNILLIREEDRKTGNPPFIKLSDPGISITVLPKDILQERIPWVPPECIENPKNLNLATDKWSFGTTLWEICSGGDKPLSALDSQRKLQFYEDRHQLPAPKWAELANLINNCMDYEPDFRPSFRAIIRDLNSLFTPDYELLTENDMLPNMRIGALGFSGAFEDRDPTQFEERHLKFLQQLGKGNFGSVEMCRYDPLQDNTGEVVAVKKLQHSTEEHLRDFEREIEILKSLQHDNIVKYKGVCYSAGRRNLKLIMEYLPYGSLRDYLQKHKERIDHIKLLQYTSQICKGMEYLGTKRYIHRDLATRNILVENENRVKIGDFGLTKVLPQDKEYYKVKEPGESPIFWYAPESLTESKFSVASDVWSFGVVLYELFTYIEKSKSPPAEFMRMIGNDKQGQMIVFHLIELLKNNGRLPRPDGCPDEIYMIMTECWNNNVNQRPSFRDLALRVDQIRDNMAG
In short: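 IC50 derived by Hill-equation fit of the 665/615 nm time-resolved fluorescence ratio after EDTA-containing detection mix with anti-phosphosubstrate antibody. Preceding 1 h reaction contained 2 μM ATP, 0.01 ng/μL JAK2, substrate, 50 mM Hepes pH 7.0, 5 mM MgCl2, 1 mM DTT.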

JAK3 = target: T1, JAK3 (Homo sapiens, UniProt P52333); assay: JAK kinase activity, homogeneous time-resolved fluorescence (JAK3 reaction system); conditions: ATP 2 μM, JAK3 protein 0.04 ng/μL; read-out: JAK 3 activity
T1 sequence (P52333 1-1124): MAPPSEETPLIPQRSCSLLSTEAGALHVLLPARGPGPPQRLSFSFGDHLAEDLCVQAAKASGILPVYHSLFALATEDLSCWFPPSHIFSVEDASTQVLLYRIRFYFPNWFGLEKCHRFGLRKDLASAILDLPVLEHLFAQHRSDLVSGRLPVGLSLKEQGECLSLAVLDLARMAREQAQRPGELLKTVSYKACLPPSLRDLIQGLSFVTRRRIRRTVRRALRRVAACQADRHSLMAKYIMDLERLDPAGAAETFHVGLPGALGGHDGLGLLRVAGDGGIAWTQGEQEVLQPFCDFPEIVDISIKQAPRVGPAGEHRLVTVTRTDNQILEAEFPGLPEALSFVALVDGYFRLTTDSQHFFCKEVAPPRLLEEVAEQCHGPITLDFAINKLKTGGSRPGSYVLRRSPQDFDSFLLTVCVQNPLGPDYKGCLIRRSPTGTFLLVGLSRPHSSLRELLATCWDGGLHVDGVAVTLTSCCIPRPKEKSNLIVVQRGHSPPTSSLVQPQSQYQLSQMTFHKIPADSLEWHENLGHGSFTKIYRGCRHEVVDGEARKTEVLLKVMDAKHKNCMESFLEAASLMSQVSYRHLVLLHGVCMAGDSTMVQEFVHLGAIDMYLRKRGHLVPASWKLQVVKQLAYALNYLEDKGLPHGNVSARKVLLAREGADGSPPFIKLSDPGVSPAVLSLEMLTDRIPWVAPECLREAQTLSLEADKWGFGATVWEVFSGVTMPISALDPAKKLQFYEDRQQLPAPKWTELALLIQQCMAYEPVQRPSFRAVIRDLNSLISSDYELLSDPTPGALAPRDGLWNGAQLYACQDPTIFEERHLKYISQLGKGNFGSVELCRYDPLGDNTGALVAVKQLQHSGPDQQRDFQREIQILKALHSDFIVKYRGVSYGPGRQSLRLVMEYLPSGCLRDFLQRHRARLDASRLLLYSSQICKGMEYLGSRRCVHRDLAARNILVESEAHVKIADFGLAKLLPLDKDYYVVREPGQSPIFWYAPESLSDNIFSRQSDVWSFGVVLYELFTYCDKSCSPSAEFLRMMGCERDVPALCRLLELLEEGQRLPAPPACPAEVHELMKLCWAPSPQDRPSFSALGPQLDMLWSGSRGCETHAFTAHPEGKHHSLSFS

TYK2 = TYK2 (Homo sapiens, UniProt P29597); assay: JAK kinase activity, homogeneous time-resolved fluorescence (TYK2 reaction system); conditions: ATP 2 μM, TYK2 protein 0.2 ng/μL; read-out: TYK 2 activity
Chain of TYK2 (P29597 whole entry): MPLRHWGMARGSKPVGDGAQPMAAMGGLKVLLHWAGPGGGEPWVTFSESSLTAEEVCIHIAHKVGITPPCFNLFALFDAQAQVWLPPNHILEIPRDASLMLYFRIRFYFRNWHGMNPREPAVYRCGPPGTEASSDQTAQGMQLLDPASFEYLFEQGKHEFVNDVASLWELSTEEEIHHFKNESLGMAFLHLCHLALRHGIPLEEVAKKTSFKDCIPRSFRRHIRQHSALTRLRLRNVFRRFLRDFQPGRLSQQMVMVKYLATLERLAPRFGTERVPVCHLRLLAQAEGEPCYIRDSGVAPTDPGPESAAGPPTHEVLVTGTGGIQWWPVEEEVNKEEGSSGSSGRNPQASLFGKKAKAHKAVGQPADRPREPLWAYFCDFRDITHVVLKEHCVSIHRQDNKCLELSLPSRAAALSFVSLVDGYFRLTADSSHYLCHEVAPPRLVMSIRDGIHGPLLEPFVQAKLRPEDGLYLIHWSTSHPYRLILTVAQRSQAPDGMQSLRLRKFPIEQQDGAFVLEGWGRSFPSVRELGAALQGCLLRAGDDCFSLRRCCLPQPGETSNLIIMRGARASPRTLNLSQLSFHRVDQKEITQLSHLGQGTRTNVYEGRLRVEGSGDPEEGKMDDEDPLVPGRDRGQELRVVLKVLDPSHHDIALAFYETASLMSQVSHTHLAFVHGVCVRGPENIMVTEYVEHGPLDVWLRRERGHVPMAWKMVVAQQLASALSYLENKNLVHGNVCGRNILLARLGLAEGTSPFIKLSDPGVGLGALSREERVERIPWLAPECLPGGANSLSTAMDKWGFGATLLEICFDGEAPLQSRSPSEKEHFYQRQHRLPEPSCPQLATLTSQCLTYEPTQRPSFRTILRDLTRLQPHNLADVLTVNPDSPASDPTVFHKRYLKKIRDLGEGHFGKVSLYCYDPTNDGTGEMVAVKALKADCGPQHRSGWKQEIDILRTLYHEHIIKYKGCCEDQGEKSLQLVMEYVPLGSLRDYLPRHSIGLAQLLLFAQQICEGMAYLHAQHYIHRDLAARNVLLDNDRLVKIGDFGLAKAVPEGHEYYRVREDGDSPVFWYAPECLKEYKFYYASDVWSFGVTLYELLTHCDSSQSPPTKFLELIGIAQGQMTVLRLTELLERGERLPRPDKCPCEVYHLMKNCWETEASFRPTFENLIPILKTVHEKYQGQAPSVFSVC
In short: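 Activity read as the 665 nm/615 nm ratio after adding EDTA-containing detection mix with anti-phospho-substrate antibody and XL-615. Beforehand, 0.2 ng/μL TYK2, 2 μM ATP, substrate and compound reacted 1 h in pH 7.0 Hepes buffer with MgCl2 and DTT. IC50 fitted with Hill-slope equation.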

Chain of JAK1 (P23458 whole entry): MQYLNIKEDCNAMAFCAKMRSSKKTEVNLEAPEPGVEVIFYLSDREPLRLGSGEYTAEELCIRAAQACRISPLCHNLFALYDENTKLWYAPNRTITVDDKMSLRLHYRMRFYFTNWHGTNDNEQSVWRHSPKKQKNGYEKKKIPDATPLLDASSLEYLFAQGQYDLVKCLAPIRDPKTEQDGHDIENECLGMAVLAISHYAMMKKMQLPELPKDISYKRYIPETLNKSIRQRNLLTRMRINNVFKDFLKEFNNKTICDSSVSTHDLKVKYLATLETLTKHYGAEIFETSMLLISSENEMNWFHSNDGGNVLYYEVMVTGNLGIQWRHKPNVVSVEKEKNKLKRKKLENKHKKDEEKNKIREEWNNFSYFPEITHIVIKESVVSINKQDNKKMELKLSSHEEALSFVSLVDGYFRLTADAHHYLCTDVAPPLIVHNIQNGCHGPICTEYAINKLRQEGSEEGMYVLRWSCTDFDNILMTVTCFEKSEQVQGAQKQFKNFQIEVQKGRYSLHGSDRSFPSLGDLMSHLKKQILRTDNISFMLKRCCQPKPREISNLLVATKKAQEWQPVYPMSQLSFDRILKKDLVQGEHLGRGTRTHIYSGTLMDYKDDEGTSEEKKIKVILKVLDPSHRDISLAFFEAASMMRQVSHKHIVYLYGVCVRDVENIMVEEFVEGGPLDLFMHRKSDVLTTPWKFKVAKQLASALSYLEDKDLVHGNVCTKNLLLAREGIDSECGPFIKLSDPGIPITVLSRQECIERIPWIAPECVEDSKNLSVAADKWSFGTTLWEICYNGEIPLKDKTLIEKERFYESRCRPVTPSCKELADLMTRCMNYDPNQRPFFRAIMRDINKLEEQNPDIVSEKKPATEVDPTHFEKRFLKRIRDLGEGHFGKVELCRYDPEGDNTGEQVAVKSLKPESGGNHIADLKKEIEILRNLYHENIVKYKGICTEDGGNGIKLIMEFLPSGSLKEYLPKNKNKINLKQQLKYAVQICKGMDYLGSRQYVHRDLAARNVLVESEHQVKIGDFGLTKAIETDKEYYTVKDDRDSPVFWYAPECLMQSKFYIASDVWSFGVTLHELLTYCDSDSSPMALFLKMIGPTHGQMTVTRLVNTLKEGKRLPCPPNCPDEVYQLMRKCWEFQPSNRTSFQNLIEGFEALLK

| SMILES | IC50 (JAK1) | IC50 (JAK2) | IC50 (JAK3) | IC50 (TYK2) |
| --- | --- | --- | --- | --- |
| O=C1NCCCCOCc2cc(ccc2N2CCCCC2)Nc2nccc(n2)-c2ccc1cc2[N+](=O)[O-] [Example 48, 1^2-nitro-4^4-(piperidin-1-)-6-oxa-3,11-diaza-2(4,2)-pyrimidina-1(1,4),4(1,3)-dibenzenacyclododecaphan-12-one] | 1000 to 10000 nM | 1000 to 10000 nM | 101 to 1000 nM | 1000 to 10000 nM |
| O=C1NCCCCOCc2cc(ccc2OC2CCCC2)Nc2nccc(n2)-c2ccc1cc2[N+](=O)[O-] [Example 87, 4^4-cyclopentoxy-1^2-nitro-6-oxa-3,11-diaza-2(4,2)-pyrimidina-1(1,4),4(1,3)-dibenzenacyclododecaphan-12-one] | > 10000 nM | > 10000 nM | 101 to 1000 nM | > 10000 nM |
| CNc1cc2ccc1-c1ccnc(n1)Nc1ccc(OC(C)C)c(c1)COCCCCNC2=O [Example 86, 4^4-isopropoxy-1^2-methyalmino-6-o-xa-3,11-diaza-2(4,2)-pyrimidina-1(1,4),4(1,3)-dibenzenacyclododecaphan-12-one] | 1000 to 10000 nM | 1000 to 10000 nM | 101 to 1000 nM | > 10000 nM |
| C[C@H]1CCOCc2cc(ccc2OC2CC2)Nc2nccc(n2)-c2ccc(cc2N)C(=O)NC1 [Example 180, (S)-1^2-amino-4^4-cyclopropoxy-9-methyl-6-oxa-3,11-diaza-2(4,2)-py-rimidina-1(1,4),4(1,3)-dibenzena-cyclododecaphan-12-one] | 1000 to 10000 nM | 101 to 1000 nM | 11 to 100 nM | 1000 to 10000 nM |
| O=C1NCCCCOCc2cc(ccc2OCC2CCOC2)Nc2nccc(n2)-c2ccc1cc2[N+](=O)[O-] (stereo not shown) [Example 124, 1^2-nitro-4^4-((tetrahydrofuran-3-yl)methoxy)-6-oxa-3,11-diaza-2(4,2)-pyrimidina-1(1,4),4(1,3)-dibenzena-cyclododecaphan-12-one] | 1000 to 10000 nM | 1000 to 10000 nM | 101 to 1000 nM | > 10000 nM |
| C[C@@H]1CCOCc2cc(ccc2OC2CCCC2)Nc2nccc(n2)-c2ccc(cc2N)C(=O)NC1 [Example 185, (R)-1-amino-4^4-(cyclopentoxy)-9-methyl-6-oxa-3,11-diaza-2(4,2)-py-rimidina-1(1,4),4(1,3)-dibenzena-cyclododecaphan-12-one] | 1000 to 10000 nM | 101 to 1000 nM | 11 to 100 nM | 1000 to 10000 nM |
| Cc1ccc2cc1COCCCCNC(=O)c1ccc(c(C)c1)-c1ccnc(n1)N2 [Example 39, 1^2,4^4-dimethyl-6-oxa-3,11-diaza-2(4,2)-pyrimidina-1(1,4),4(1,3)-diben-zenacyclododecaphan-12-one] | 1000 to 10000 nM | 1000 to 10000 nM | 101 to 1000 nM | > 10000 nM |
| Nc1cc2ccc1-c1ccnc(n1)Nc1ccc(N3CCCCC3)c(c1)COCCCCNC2=O [Example 55, 1^2-amino-4^4-(piperidin-1-)-6-oxa-3,11-diaza-2(4,2)-pyrimidina-1(1,4),4(1,3)-dibenzenacyclododecaphan-12-one] | 101 to 1000 nM | 11 to 100 nM | < 10 nM | 101 to 1000 nM |
| Nc1cc2ccc1-c1ccnc(n1)Nc1ccc(OCC3CCCCC3)c(c1)COCCCCNC2=O [Example 97, 1^2-amino-4^4-(cyclohexylmethoxy)-6-oxa-3,11-diaza-2(4,2)-pyrimidi-na-1(1,4),4(1,3)-dibenzenacyclodo-decaphan-12-one] | 1000 to 10000 nM | 1000 to 10000 nM | 11 to 100 nM | 1000 to 10000 nM |
| COc1cccc(F)c1COc1ccc2cc1COCCCCNC(=O)c1ccc(c([N+](=O)[O-])c1)-c1ccnc(n1)N2 [Example 171, 4^4-((2-fluoro-6-methoxybenzyl)oxy)-1^2-nitro-6-oxa-3,11-diaza-2(4,2)-pyrimidina-1(1,4),4(1,3)-di-benzenacyclododecaphan-12-one] | 1000 to 10000 nM | 1000 to 10000 nM | 1000 to 10000 nM | > 10000 nM |
| O=C1Nc2ccc(cc2)OCc2cc(ccc2Oc2cccnc2)Nc2nccc(n2)-c2ccc1cc2[N+](=O)[O-] [Example 204, 1-nitro-4^4-(pyridin-3-oxy)-6-oxa-3,8-diaza-2(4,2)-pyrimidina-1,7(1,4),4(1,3)-tribenzenacyclononaphen-9-one] | 1000 to 10000 nM | > 10000 nM | 1000 to 10000 nM | > 10000 nM |
| Nc1cc2ccc1-c1ccnc(n1)Nc1ccc(OC3CCCOC3)c(c1)COc1ccc(cc1)NC2=O (stereo not shown) [Example 197, 1^2-amino-4^4-((tetrahydro-2H-pyran-3-yl)oxy)-6-oxa-3-8-diaza-2 (4,2)-pyrimidina-1,7(1,4), 4 (1,3)-tribenzenacyclononaphane-9-one] | 1000 to 10000 nM | 101 to 1000 nM | 11 to 100 nM | 1000 to 10000 nM |
| Nc1cc2ccc1-c1ccnc(n1)Nc1ccc(OC3CCCCC3)c(c1)COCCCCNC2=O [Example 47, 1^2-amino-4^4-cyclohexyloxy-6-oxa-3,11-diaza-2(4,2)-pyrimidina-1(1,4),4(1,3)-dibenzenacyclododecaphan-12-one] | 1000 to 10000 nM | 1000 to 10000 nM | 11 to 100 nM | 1000 to 10000 nM |
| Nc1cc2ccc1-c1ccnc(n1)Nc1ccc(OCC3CC(F)(F)C3)c(c1)COCCCCNC2=O [Example 127, 1^2-Amino-4^4-((3,3-difluorocyclo-butyl)methoxy)-6-oxa-3,11-diaza-2(4,2)-pyrimidina-1(1,4),4(1,3)-di-benzenacyclododecaphan-12-one] | 1000 to 10000 nM | 101 to 1000 nM | < 10 nM | 1000 to 10000 nM |
| O=C1NCCCCOCc2cc(ccc2OCC2CC(F)(F)C2)Nc2nccc(n2)-c2ccc1cc2[N+](=O)[O-] [Example 126, 4^4-((3,3-Difluorocyclobutyl)methoxy)-1^2-nitro-6-oxa-3,11-diaza-2(4,2)-pyrimidina-1(1,4),4(1,3)-di-benzenacyclododecaphan-12-one] | > 10000 nM | 1000 to 10000 nM | 101 to 1000 nM | > 10000 nM |
| O=C1Nc2ccc(cc2)OCc2cc(ccc2OCC2CCCOC2)Nc2nccc(n2)-c2ccc1cc2[N+](=O)[O-] (stereo not shown) [Example 212, 1^2-nitro-4^4-((tetrahydro-2H-pyran-3-yl)methoxy)-6-oxa-3,8-diaza-2(4,2)-pyrimidina-1,7(1,4),4(1,3)-tri-benzenacyclononaphane-9-one] | 1000 to 10000 nM | 1000 to 10000 nM | 1000 to 10000 nM | > 10000 nM |
| CC1CCNC(=O)c2ccc(c(N)c2)-c2ccnc(n2)Nc2ccc(OC3CC3)c(c2)COC1 (stereo not shown) [Example 95, 1^2-amino-4^4-cyclopropoxy-8-methyl-6-oxa-3, 11-diaza-2 (4,2)-pyrimidina-1(1,4),4(1,3)-dibenzenacyclododecaphan-12-one] | 1000 to 10000 nM | 11 to 100 nM | < 10 nM | 1000 to 10000 nM |
| O=C1NCCCCOCc2cc(ccc2Oc2cccc(F)c2)Nc2nccc(n2)-c2ccc1cc2[N+](=O)[O-] [Example 101, 4^4-(3-fluorophenoxy)-1^2-nitro-6-oxa-3,11-diaza-2(4,2)-pyrimidina-(1,4),4(1,3)-dibenzenacyclododeca-phan-12-one] | > 10000 nM | 1000 to 10000 nM | 1000 to 10000 nM | > 10000 nM |
| CC(C)Oc1c(F)cc2cc1COCCCCNC(=O)c1ccc(c(N)c1)-c1ccnc(n1)N2 [Example 85, 1^2-amino-4^5-fluoro-4^4-isopropoxy-6-oxa-3,11-diaza-2(4,2)-pyrimidina-1(1,4),4(1,3)-dibenzenacyclododeca-phan-12-one] | 101 to 1000 nM | 101 to 1000 nM | 11 to 100 nM | > 10000 nM |
